# Experimental data as given in article PMC12428237, “Study on the Calcium Transport-Promoting Property and Mechanism of the Peptide–Calcium Complex DEEENDQVK–Ca Based on a Caco-2 Monolayer Model” (Foods, 2025).
# What was measured:
# Type in all cases: cell-based, human
# calbindin-D9k = assay: RT-qPCR, calbindin-D9k mRNA expression; conditions: Caco-2 monolayer, 24 h, 2 mg/mL DK–Ca or 2 mg/mL DK + 7.5 mM CaCl2; normalized to GAPDH, 2^-ΔΔCt; n = 3
# Description: (§1) The expression levels of genes related to calcium transport channels were determined following the method of Li et al.. After 21 days of establishing the Caco-2 monolayer model, the monolayers were treated for 24 h with a complete medium containing 2 mg/mL DK–Ca or 2 mg/mL DK + 7.5 mM CaCl2. The group without an added sample served as the control group. Subsequently, the monolayers were washed thrice with HBSS buffer before cell lysis using 200 μL RNAiso Plus. Total RNA was extracted, and first-strand cDNA synthesis was subsequently performed with the PrimeScript® RT reagent kit as per the kit manufacturer’s instructions. Using cDNA as a template, RT-qPCR was performed with gene-specific primers targeting TRPV6, calbindin-D9k, PMCA1b, occludin, and claudin-2. The standard procedure for PCR amplification was as follows: 95 °C for 30 s, followed by 40 cycles of 95 °C for 5 s, 60 °C for 30 s, and 72 °C for 1 min. Target gene expression level was normalized to GAPDH and calculated using the 2^^(-ΔΔCt) relative quantification method. In experimental groups, GAPDH served as the internal reference gene for normalization. All primer sequences used in this study are detailed in Table S1.
# Caco-2 monolayer [1] = assay: Effect of dietary components (vitamin D3, phytic acid) on calcium transport in Caco-2 monolayer; conditions: 120 min, control without dietary component, n = 3
# Description: Vitamin D3 (0.5 μmol/L, dissolved in 0.1% ethanol) or phytic acid (1.8 mM, with a of phytic acid/calcium molar ratio of 0.24) was added to the AP side to evaluate the effect of dietary components on calcium transport. The group without an added dietary component served as the control group. After 120 min incubation, the BL side solution was collected for calcium transport analysis.
# PMCA1b = assay: RT-qPCR, PMCA1b mRNA expression; conditions: Caco-2 monolayer, 24 h, 2 mg/mL DK–Ca or 2 mg/mL DK + 7.5 mM CaCl2; normalized to GAPDH, 2^-ΔΔCt; n = 3
# Description: as §1
# Caco-2 monolayer [2] = assay: Fluo-4 AM fluorescence imaging of intracellular calcium influx; conditions: samples containing 150 μg/mL calcium, 24 h, Fluo-4 AM 4 μmol/L, confocal microscope
# Description: Fluorescence imaging based on intracellular calcium influx was conducted to assess the calcium transport-promoting effect in the Caco-2 monolayer following the method of Men et al.. Log-phase cells were seeded at 1.5 × 10^5 cells/well in 35 mm laser confocal dishes and gently agitated to ensure uniform distribution. Cultures were maintained at 37 °C in 5% CO2 with daily medium replacement until confluent monolayers formed. Subsequently, CaCl2, DK + CaCl2, and DK–Ca solutions (each containing 150 μg/mL calcium) were added separately. The group without an added sample served as the control group. Following 24 h of incubation, the cells were washed thrice with prewarmed calcium-/magnesium-free HBSS buffer (pH 7.2). Under light-protected conditions, 200 µL of Fluo-4 AM (4 μmol/L) was applied to cover the cells. Following 30 min incubation at 37 °C and subsequent washes, cells were dark-adapted for 10 min at room temperature for de-esterification. Imaging was conducted using a confocal microscope (excitation at 496 nm, Zeiss LSM980 Airyscan2, Carl Zeiss, Germany ), followed by quantification of the fluorescence intensity with ImageJ 1.54 g software.
substance,measurement,setting,value
"DEEENDQVK–Ca [DK–Ca, complex formed by chemically chelating DK with CaCl2]","calbindin-D9k mRNA expression, upregulation compared to the untreated control group",calbindin-D9k,2.26 fold
same,reduction of transported calcium by phytic acid compared to the control group,Caco-2 monolayer [1]; phytic acid 1.8 mM (phytic acid/calcium molar ratio 0.24) on AP side,7.83%
same,increase of transported calcium by vitamin D3 compared to the control group,Caco-2 monolayer [1]; vitamin D3 0.5 μmol/L on AP side,11.3%
same,"PMCA1b mRNA expression, upregulation compared to the untreated control group",PMCA1b,2.17 fold
same,fluorescence intensity (intracellular calcium influx) compared to the control group,Caco-2 monolayer [2],significantly increased
